Laboratory results taken from the NIST ThermoML archive (doi:10.1021/je900034d).
Numbers after ± are expanded uncertainties. One block for each compound: values may come before it.

Tests used:
[1] = Crystal; DTA
[2] = Molar enthalpy of transition or fusion; settings: Crystal; DSC

Normal melting temperature [1]: 59.7 ± 0.5 °C | Molar enthalpy of transition or fusion [2]: 4.16 ± 0.215 kcal/mol
Compound: c1ccc(-c2ccncc2)nc1 [2,4'-bipyridine]

Normal melting temperature [1]: 61.0 ± 0.5 °C | Molar enthalpy of transition or fusion [2]: 4.49 ± 0.167 kcal/mol
Compound: c1ccc(-c2ccncn2)cc1 [4-phenylpyrimidine]

Normal melting temperature [1]: 104.4 ± 0.5 °C | Molar enthalpy of transition or fusion [2]: 3.85 ± 0.478 kcal/mol
Compound: c1cc(-c2ccncc2)ccn1 [γ,γ'-bipyridyl]

Further lines, the compound ahead of its results:

Compound: c1cnc2ccc3ncccc3c2c1 [4,7-phenanthroline]
Normal melting temperature [1]: 172.4 ± 0.5 °C | Molar enthalpy of transition or fusion [2]: 5.21 ± 0.263 kcal/mol

Compound: c1cnc2c(c1)ccc1ncccc12 [1,5-diazaphenanthrene]
Normal melting temperature [1]: 77.2 ± 0.5 °C | Molar enthalpy of transition or fusion [2]: 4.35 ± 0.167 kcal/mol
